Results on 23 compounds are retold here after patent publication US9403832B2, “Pyrazolo[1,5-a]pyrimidine-based compounds, compositions comprising them, and methods of their use” (Lexicon Pharmaceuticals, Inc., priority 2012, dated 2016).

A value given as a limit tells only on which side of the number the result lay.

The target in assay [1] is T1, AAK1 (Homo sapiens, UniProt Q2M2I8).
T1 construct: NP_055726.2
The assay can be described thus: HEK281 cell-based assay (CBA). The settings on record: HEK293F cells transfected with full length human AAK1 and AP2M1; phospho-mu2 Western blot; 3 hours incubation. The method, then:
HEK293F cells were cultured in media containing DMEM (Gibco, cat. #11965), 10% FBS (SAFC Biosciences, cat. #12103C), 1× GPS (glutamine, penicillin and streptomycin). On day one, cells were plated on a 10 cm dish so that they are ˜80% confluent at time of transfection. Roughly 12 million cells were in a 10 cm dish at time of transfection. On day two, each dish was transfected with 48 ug DNA and 144 ul Lipofectamine 2000 (Invitrogen, cat. #11668-019). The DNA was comprised of a mixture (per 10 cm dish) containing 3 ug AAK1/HA/pIRES (full length human, NCBI accession no. NP_055726.2), 45 μg Flag/AP2MI/pcDNA (full length human), and 1.5 ml OPTI-MEM. The Lipofectamine 2000 is made up of a mixture (per 10 cm dish) containing 144 μl Lipofectamine 2000 and 1.5 ml OPTI-MEM. Each mixture was transferred to individual 15 ml tubes and incubated at RT for 5 minutes, and then the two mixes were combined and incubated at RT for 20 minutes.
Growth media was then aspirated from each 10 cm plate and replaced with 10 ml of DMEM+10% FBS (no GPS). Finally, 3 ml DNA/Lipofectamine mix was added to each 10 cm dish and mix gently followed by incubate of plate overnight at 37° C. and 5% CO2.
On day three, compounds were diluted in 100% DMSO at 1000× final concentration, followed by 3-fold serial dilutions for a total of 5 concentrations tested. Four compounds were tested per 10 cm dish. One ul of each compound dilution was then pipetted into a deep-well, 96-well plate, followed by addition of 500 μl DMEM+0.5% FBS into each well for a 2× final concentration of each compound. Cells were resuspended in a 10 cm dish by simple pipetting (HEK293 cells come off the plate that easy at this point) and then transferred to a 50 ml conical tube and pelleted by centrifugation at 1000 rpm for 5 min. Cell pellets were then resuspended in 2.75 ml DMEM+0.5% FBS per 10 cm dish and 100 μl of cell suspension transferred into each well of 96-well TC plate. Finally, 100 μl of 2× compound diluted in DMEM+0.5% FBS was then added into wells containing cell suspension for a 1× final concentration. Plates were then incubated at 37° C. and 5% CO2 for 3 hours followed by transferring of cell suspensions from each well into 12-tube PCR strips. The PCR strips were spun in a tip rack at 1000 rpm for 5 minutes to pellet cells and media was then removed by pipetting without disturbing the cell pellet.
To prepare for Western Blot analysis, cell pellets were resuspend in 40 ul 1× LDS-PAGE sample buffer (Invitrogen, cat.# NP0008)+2× Halt phophatase and protease inhibitor cocktail (Thermo Scientific, cat. #1861284), followed by sonicating each with microtip sonicator set at 5 for 8-10 seconds. Five ul of 10× NuPage Sample Reducing Agent (with 50 mM DTT) was to each sample followed by heat denaturing at 70 C for 10 min on PCR machine. A total of 10 μl per sample was loaded into each lane of a 4-20% Tris-Glycine Criterion 26-well gel (Biorad, cat. #345-0034) for the phospho-mu2 blot and 10 μl per lane in a 4-12% Bis-Tris (+MES buffer) NuPAGE 26-well gel (Invitrogen, cat.# WG1403BX10) for the mu2 blot. For controls, 2 ng of phospho-mu2 or 20 ng mu2/Flag proteins were loaded in the last well of each gel. After SDS-PAGE, samples on each gel were transferred to PVDF membrane using an iBlot and membranes were blocked for one hour in TBST+5% milk, followed by wash 3× for 5-10 min with TBST. Criterion gels were probed with rabbit anti-phospho-mu2 (1:5000; a rabbit polyclonal antibody produced by New England Peptide and affinity purified at Lexicon) in TBST+5% BSA, whereas, NuPAGE gels were probed with mouse anti-Flag (1:500; Sigma, cat.# F1804) in TBST+5% milk, and these primary antibodies were incubated overnight at 4° C. on a rocker.
(In general: A western blot detects proteins with antibodies after separation by electrophoresis.)

The target of assay [2] is T1, AAK1. The assay can be described thus: P81 filter plate assay. It counts as biochemical. The settings on record: full-length human AAK1, Mu2 substrate, 33P-ATP. Put shortly: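 Full-length human AAK1 (0.2 nM, 2×) was pre-incubated 10 min at RT with compounds (top concentration 96 μM in the dilution plate), then reacted 1 h at RT with full-length human Mu2 (0.2 μM, 2×), cold ATP (2 μM, 2×) and ³³P-ATP. Reactions were stopped with phosphoric acid and captured on P81 filters for scintillation counting.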

T1 sequence (Q2M2I8 1-863 isoform Q2M2I8-2): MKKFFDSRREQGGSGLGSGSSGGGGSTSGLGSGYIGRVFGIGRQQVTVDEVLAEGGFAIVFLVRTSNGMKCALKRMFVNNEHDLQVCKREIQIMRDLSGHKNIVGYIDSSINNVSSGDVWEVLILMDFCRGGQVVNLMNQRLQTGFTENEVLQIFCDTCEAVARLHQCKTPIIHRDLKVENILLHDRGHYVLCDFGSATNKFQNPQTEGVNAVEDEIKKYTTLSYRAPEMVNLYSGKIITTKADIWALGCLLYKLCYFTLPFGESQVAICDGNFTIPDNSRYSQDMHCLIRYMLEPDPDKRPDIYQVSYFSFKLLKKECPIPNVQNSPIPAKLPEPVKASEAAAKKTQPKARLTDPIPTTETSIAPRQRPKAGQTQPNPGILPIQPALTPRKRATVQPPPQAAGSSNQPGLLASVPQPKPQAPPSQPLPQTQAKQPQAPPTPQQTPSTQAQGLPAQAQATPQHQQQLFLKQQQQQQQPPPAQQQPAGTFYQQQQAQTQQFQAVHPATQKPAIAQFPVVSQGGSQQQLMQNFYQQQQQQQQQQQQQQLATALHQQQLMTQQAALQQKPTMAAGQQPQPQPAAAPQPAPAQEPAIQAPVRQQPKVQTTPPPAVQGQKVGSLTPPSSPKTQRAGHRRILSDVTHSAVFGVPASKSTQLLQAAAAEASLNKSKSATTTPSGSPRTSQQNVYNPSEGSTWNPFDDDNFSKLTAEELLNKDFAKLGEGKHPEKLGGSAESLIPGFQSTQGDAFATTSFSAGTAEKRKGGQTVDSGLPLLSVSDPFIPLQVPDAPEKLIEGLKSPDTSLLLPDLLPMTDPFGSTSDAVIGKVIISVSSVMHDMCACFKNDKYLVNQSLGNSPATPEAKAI

What is called IC50 is the concentration at which inhibition is half-maximal. Consider `CCCOC(=O)N1CCN(c2ccn3ncc(-c4cc(F)cnc4OC)c3n2)CC1` [propyl 4-(3-(5-fluoro-2-methoxypyridin-3-yl)pyrazolo[1,5-a]pyrimidin-5-yl)piperazine-1-carboxylate], for which the IC50 is at most 100 nM on AAK1 [1] and at most 10 nM against AAK1 [2].

Turning to `COc1ncccc1-c1cnn2ccc(N3CCN(C(=O)C4(N)CCOC4)CC3)nc12` (stereo not drawn) [(3-aminotetrahydrofuran-3-yl)(4-(3-(2-methoxypyridin-3-yl)pyrazolo[1,5-a]pyrimidin-5-yl)piperazin-1-yl)methanone], the IC50 at AAK1 [1] was at most 100 nM; against AAK1 [2] it was at most 10 nM.

Take `COc1ncccc1-c1cnn2ccc(NCCCOC(C)(C)C)nc12` [N-(3-(tert-butoxy)propyl)-3-(2-methoxypyridin-3-yl)pyrazolo[1,5-a]pyrimidin-5-amine]: the IC50 at AAK1 [1] was at most 100 nM; against AAK1 [2] it was at most 10 nM.

For the compound `CCOC(=O)N1CCN(c2ccn3ncc(-c4cc(F)cnc4OC)c3n2)CC1` [ethyl 4-(3-(5-fluoro-2-methoxypyridin-3-yl)pyrazolo[1,5-a]pyrimidin-5-yl)piperazine-1-carboxylate], the results for the IC50 against AAK1 [1] and at AAK1 [2] were at most 100 nM and at most 10 nM, respectively.

In the case of `COc1ncc(F)cc1-c1cnn2ccc(N3CCN(C(=O)OC(C)(C)C)CC3)nc12` [tert-butyl 4-(3-(5-fluoro-2-methoxypyridin-3-yl)pyrazolo[1,5-a]pyrimidin-5-yl)piperazine-1-carboxylate], the IC50 is at most 100 nM against AAK1 [1] and at most 10 nM on AAK1 [2].

With `COCC(C)OC(=O)N1CCN(c2ccn3ncc(-c4cccnc4OC)c3n2)CC1` (stereo not drawn) [1-methoxypropan-2-yl 4-(3-(2-methoxypyridin-3-yl)pyrazolo[1,5-a]pyrimidin-5-yl)piperazine-1-carboxylate], the IC50 at AAK1 [1] and against AAK1 [2] was at most 10 nM each time.

Turning to `COc1nc(C)ccc1-c1cnn2ccc(N(C)CCCN(C)C(=O)OC(C)C)nc12` [isopropyl (3-((3-(2-methoxy-6-methylpyridin-3-yl)pyrazolo[1,5-a]pyrimidin-5-yl)(methyl)amino)propyl)(methyl)carbamate], the figures for the IC50 against AAK1 [1] and at AAK1 [2] were at most 100 nM and at most 10 nM, respectively.

`COc1ccc(F)cc1-c1cnn2ccc(N3CCN(C(=O)OC(C)(C)C)CC3)nc12` [tert-butyl 4-(3-(5-fluoro-2-methoxyphenyl)pyrazolo[1,5-a]pyrimidin-5-yl)piperazine-1-carboxylate]: the IC50 against AAK1 [1] and on AAK1 [2] was at most 10 nM in each case.

Turning to `COCCOC(=O)N1CCN(c2ccn3ncc(-c4cc(F)cnc4OC)c3n2)CC1` [2-methoxyethyl 4-(3-(5-fluoro-2-methoxypyridin-3-yl)pyrazolo[1,5-a]pyrimidin-5-yl)piperazine-1-carboxylate], the IC50 on AAK1 [1] is at most 100 nM; on AAK1 [2], at most 10 nM.

As for `COc1ccccc1-c1cnn2ccc(N3CCN(C(=O)[C@@H](N)C(C)(C)C)CC3)nc12` [(S)-2-amino-1-(4-(3-(2-methoxyphenyl)pyrazolo[1,5-a]pyrimidin-5-yl)piperazin-1-yl)-3,3-dimethylbutan-1-one], the IC50 against AAK1 [1] and against AAK1 [2] was at most 10 nM throughout.

For the compound `COc1ncccc1-c1cnn2ccc(N3CCN(C(=O)OC4COC4)CC3)nc12` [oxetan-3-yl 4-(3-(2-methoxypyridin-3-yl)pyrazolo[1,5-a]pyrimidin-5-yl)piperazine-1-carboxylate], the IC50 at AAK1 [1] and against AAK1 [2] was at most 10 nM each time.

With `CC(C)[C@H](N)C(=O)N1CCN(c2ccn3ncc(-c4ccccc4F)c3n2)CC1` [(S)-2-amino-1-(4-(3-(2-fluorophenyl)pyrazolo[1,5-a]pyrimidin-5-yl)piperazin-1-yl)-3-methylbutan-1-one], the IC50 at AAK1 [1] and against AAK1 [2] was at most 10 nM in each case.

On to `COc1ncccc1-c1cnn2ccc(N3CCN(C(=O)O[C@@H]4CCOC4)CC3)nc12` [(R)-tetrahydrofuran-3-yl 4-(3-(2-methoxypyridin-3-yl)pyrazolo[1,5-a]pyrimidin-5-yl)piperazine-1-carboxylate], for which the IC50 on AAK1 [1] and at AAK1 [2] was at most 10 nM each time.

As for `COc1ncccc1-c1cnn2ccc(N3CCN(C(=O)OCC(F)(F)F)CC3)nc12` [2,2,2-trifluoroethyl 4-(3-(2-methoxypyridin-3-yl)pyrazolo[1,5-a]pyrimidin-5-yl)piperazine-1-carboxylate], the IC50 against AAK1 [1] and on AAK1 [2] was at most 10 nM in each case.

On to `COc1ncc(C)cc1-c1cnn2ccc(N3CCN(C(=O)OC(C)C)CC3)nc12` [isopropyl 4-(3-(2-methoxy-5-methylpyridin-3-yl)pyrazolo[1,5-a]pyrimidin-5-yl)piperazine-1-carboxylate], for which the IC50 on AAK1 [1] and against AAK1 [2] was at most 10 nM each time.

For `COc1ccc(F)cc1-c1cnn2ccc(N3CCN(C(=O)[C@@H](N)C(C)(C)C)CC3)nc12` [(S)-2-amino-1-(4-(3-(5-fluoro-2-methoxyphenyl)pyrazolo[1,5-a]pyrimidin-5-yl)piperazin-1-yl)-3,3-dimethylbutan-1-one], the half-inhibitory concentration (IC50) against AAK1 [1] and against AAK1 [2] was at most 10 nM throughout.

Consider `CC(C)[C@H](N)C(=O)N1CCN(c2ccn3ncc(-c4ccccc4)c3n2)CC1` [(S)-2-amino-3-methyl-1-(4-(3-phenylpyrazolo[1,5-a]pyrimidin-5-yl)piperazin-1-yl)butan-1-one], for which the IC50 on AAK1 [1] and at AAK1 [2] was at most 10 nM in each case.

As for `CC(C)[C@H](N)C(=O)N1CCN(c2ccn3ncc(-c4cccc(F)c4)c3n2)CC1` [(S)-2-amino-1-(4-(3-(3-fluorophenyl)pyrazolo[1,5-a]pyrimidin-5-yl)piperazin-1-yl)-3-methylbutan-1-one], the IC50 against AAK1 [1] and against AAK1 [2] was at most 10 nM each time.

As for `COc1ncccc1-c1cnn2ccc(N3CCN(C(=O)O[C@H]4CCOC4)CC3)nc12` [(S)-tetrahydrofuran-3-yl 4-(3-(2-methoxypyridin-3-yl)pyrazolo[1,5-a]pyrimidin-5-yl)piperazine-1-carboxylate], the IC50 against AAK1 [1] and against AAK1 [2] was at most 10 nM in each case.

As for `COc1cccc(-c2cnn3ccc(NC[C@@H]4CCCN4C(=O)OC(C)(C)C)nc23)c1` [(S)-tert-butyl 2-(((3-(3-methoxyphenyl)pyrazolo[1,5-a]pyrimidin-5-yl)amino)methyl)pyrrolidine-1-carboxylate], the 50% inhibitory concentration (IC50) at AAK1 [1] and at AAK1 [2] was at most 10 nM each time.

With `COc1ncccc1-c1cnn2ccc(N(C)CCCN(C)C(=O)OC(C)C)nc12` [isopropyl (3-((3-(2-methoxypyridin-3-yl)pyrazolo[1,5-a]pyrimidin-5-yl)(methyl)amino)propyl)(methyl)carbamate], the IC50 on AAK1 [1] was at most 100 nM; at AAK1 [2], at most 10 nM.

For `COc1ncccc1-c1cnn2ccc(N3CCN(C(=O)OC(C)(C)C)CC3)nc12` [tert-butyl 4-(3-(2-methoxypyridin-3-yl)pyrazolo[1,5-a]pyrimidin-5-yl)piperazine-1-carboxylate], the half-maximal inhibitory concentration (IC50) against AAK1 [1] and on AAK1 [2] was at most 10 nM each time.

Turning to `CC(C)COC(=O)N(C)CCNc1ccn2ncc(-c3ccc(C(N)=O)cc3)c2n1` [isobutyl (2-((3-(4-carbamoylphenyl)pyrazolo[1,5-a]pyrimidin-5-yl)amino)ethyl)(methyl)carbamate], the IC50 at AAK1 [1] was at most 10 nM.
